Data as given in US9642870B2, “Composition for preventing or alleviating atopic dermatitis comprising immunosuppressant and transglutaminase 2 inhibitor” (Dongguk University Industry-Academic Cooperation Foundation, priority 2011, dated 2017).

Assays:
[1] = test system: IgE; assay: Total serum IgE (ELISA); type: in vivo, mice; conditions: administered alone, compared with the control
Description: Since the major symptoms of atopic dermatitis were associated with strong Th2 immune response, IgE was produced at an excessive amount. Therefore, either glucosamine or tacrolimus was administered alone to the atopy-induced mice, or glucosamine and tacrolimus were administered in combination to measure a level of IgE in the serum. After one week had elapsed after the final administration, sera were obtained from the mice, and a total level of IgE was measured using an ELISA kit (Yamasa, Tokyo, Japan).

[2] = test system: severe atopic dermatitis patients; assay: Clinical test: objective SCORAD index in atopic dermatitis patients; conditions: FIG. 17
Description: During the experiments, the vital signs, that is, a blood pressure and a pulse, were measured after patients sat for 3 minutes to rest.
Thereafter, the SCORAD indexes were measured. […] The SCORAD indexes were measured before dosage and at points of time at which the dosage methods were changed. It was assumed that an area of lesions was set to 0 to 100% according to the rule of nine, the SCORAD index was calculated as the sum (0-103) of an objective SCORAD index and a subjective SCORAD index. Here, the objective SCORAD index was calculated by dividing the severity of atopic dermatitis, which was divided into 6 categories of erythema, edema/papulation, oozing/crusts, excoriations, lichenification and skin dryness, by 0 to 3, summing up the calculated values, and adding the sum of the calculated values to ⅕ of the area of the lesions, and the subjective SCORAD index was obtained by setting each of pruritus and dyssomnia during waking hours to analog scales 0 to 10 (European Task Force on Atopic Dermatitis, 1993). […] Therefore, only the objective SCORAD index was evaluated in this Example.
The changes in the SCORAD indexes of the 10 patients were plotted on one graph.
Then, average lines plotted from the results of all the patients were drawn, and compared.

[3] = in vivo
[4] = test system: IFN-g, IL-4, IL-5; assay: Immunosuppressive effects of immunosuppressants administered alone (IFN-g, IL-4, IL-5 concentrations); type: cell-based; conditions: FIGS. 24 to 26
Text: Further, immunosuppressive effects according to the kinds of immunosuppressants were further confirmed through experiments conducted to determine a proper dosage concentration.

[5] = Minimum and maximum doses from experiments conducted at a cell level; type: cell-based; conditions: no difference in inhibition level

## N[C@H]1C(O)O[C@H](CO)[C@@H](O)[C@@H]1O (stereo partly shown) [glucosamine]
[1]
  total level of IgE in the serum: no clear difference
[2]; glucosamine administered alone, November 10 to November 24
  change in SCORAD indexes: no change
[2]; single versus combined administration
  therapeutic effect (SCORAD indexes), summary: poor therapeutic effect
[3]
  blood glucosamine concentrations, animals versus humans: no significant difference

## C=CC[C@@H]1/C=C(\C)C[C@H](C)C[C@H](OC)[C@H]2O[C@@](O)(C(=O)C(=O)N3CCCC[C@H]3C(=O)O[C@H](/C(C)=C/[C@@H]3CC[C@@H](O)[C@H](OC)C3)[C@H](C)[C@@H](O)CC1=O)[C@H](C)C[C@@H]2OC [tacrolimus]
[4]
  immunosuppressive effect (changes in concentrations of IFN-g, IL-4, IL-5): suppressed an immune response
[1]
  total level of IgE in the serum: no clear difference
[5]
  dose required relative to cyclosporine: lower dose than cyclosporine by a factor of 10
